The target in this experiment is T1, human Nav1.7 (Homo sapiens, UniProt Q15858).
T1 construct: expressed in transfected cells
The experiment can be described thus: Assessment of Nav1.7 activity on PatchXpress (voltage dependence / slow inactivation parameters). It is filed as cell-based. The following applies: compound at 10 μM, relative to 0.2% DMSO vehicle control; for hNav1.7: Reduction in current at 20 mV (normalized data) Delta Ratio: before/after 30 sec conditioning pulse at 20 mV; for hNav1.7: Shift in voltage dependence of inactivation (mV) Delta Vhalf: PatchXpress. How it is done: The generation of a HEK 293F cell line stably expressing human Nav1.7/Navp1 was achieved by co-transfecting human SCN9A and human SCN1B cDNAs, subcloned into plasmid vectors, utilizing standard transfection techniques. Clones were selected using appropriate selection agents (0.3 mg/mL Zeocin and 0.8 mg/mL Geneticin) and maintained in Dulbecco's Modified Eagle medium, 10% fetal bovine serum, 1% non-essential amino acids to ˜80% confluence at 37° C. in a humidified incubator with 95% atmosphere and 5% CO2.
On the day of each experiment, cells that were grown to 80% confluence in a T75 flask were harvested for use on PatchXpress (Molecular Devices, CA, USA). Following a recovery period at 37° C. in a humidified incubator with 95% atmosphere and 5% CO2 in Dulbecco's Modified Eagle Medium, the media was replaced with an external recording solution containing (in mM): 90 TEACI, 50 NaCl, 1.8 CaCl2, 1 MgCl2, 10 HEPES, 10 glucose, adjusted to pH 7.4 with TEAOH and 300 mOsm with sucrose. The internal recording solution contained (in mM): 129 CsF, 2 MgCl2, 11 EGTA, 10 HEPES, 6 NaCl, 3 Na2ATP adjusted to pH 7.2 with CsOH and 280 mOsm with sucrose. The automated liquid handling facility of PatchXpress dispensed cells and added compound. Modulation of Nav1.7 channels by compounds was assessed by promoting the channels into the inactivated state using a conditioning voltage pulse of variable amplitude, followed by a brief hyperpolarizing pulse with a subsequent depolarized voltage step to measure the current amplitude in the presence and absence of compound. Compounds were assayed at 10 μM. Based upon this Patch express protocol, four electrophysiological parameters were measured relative to a 0.2% DMSO vehicle control (Table 2).

T1 sequence (Q15858 whole entry): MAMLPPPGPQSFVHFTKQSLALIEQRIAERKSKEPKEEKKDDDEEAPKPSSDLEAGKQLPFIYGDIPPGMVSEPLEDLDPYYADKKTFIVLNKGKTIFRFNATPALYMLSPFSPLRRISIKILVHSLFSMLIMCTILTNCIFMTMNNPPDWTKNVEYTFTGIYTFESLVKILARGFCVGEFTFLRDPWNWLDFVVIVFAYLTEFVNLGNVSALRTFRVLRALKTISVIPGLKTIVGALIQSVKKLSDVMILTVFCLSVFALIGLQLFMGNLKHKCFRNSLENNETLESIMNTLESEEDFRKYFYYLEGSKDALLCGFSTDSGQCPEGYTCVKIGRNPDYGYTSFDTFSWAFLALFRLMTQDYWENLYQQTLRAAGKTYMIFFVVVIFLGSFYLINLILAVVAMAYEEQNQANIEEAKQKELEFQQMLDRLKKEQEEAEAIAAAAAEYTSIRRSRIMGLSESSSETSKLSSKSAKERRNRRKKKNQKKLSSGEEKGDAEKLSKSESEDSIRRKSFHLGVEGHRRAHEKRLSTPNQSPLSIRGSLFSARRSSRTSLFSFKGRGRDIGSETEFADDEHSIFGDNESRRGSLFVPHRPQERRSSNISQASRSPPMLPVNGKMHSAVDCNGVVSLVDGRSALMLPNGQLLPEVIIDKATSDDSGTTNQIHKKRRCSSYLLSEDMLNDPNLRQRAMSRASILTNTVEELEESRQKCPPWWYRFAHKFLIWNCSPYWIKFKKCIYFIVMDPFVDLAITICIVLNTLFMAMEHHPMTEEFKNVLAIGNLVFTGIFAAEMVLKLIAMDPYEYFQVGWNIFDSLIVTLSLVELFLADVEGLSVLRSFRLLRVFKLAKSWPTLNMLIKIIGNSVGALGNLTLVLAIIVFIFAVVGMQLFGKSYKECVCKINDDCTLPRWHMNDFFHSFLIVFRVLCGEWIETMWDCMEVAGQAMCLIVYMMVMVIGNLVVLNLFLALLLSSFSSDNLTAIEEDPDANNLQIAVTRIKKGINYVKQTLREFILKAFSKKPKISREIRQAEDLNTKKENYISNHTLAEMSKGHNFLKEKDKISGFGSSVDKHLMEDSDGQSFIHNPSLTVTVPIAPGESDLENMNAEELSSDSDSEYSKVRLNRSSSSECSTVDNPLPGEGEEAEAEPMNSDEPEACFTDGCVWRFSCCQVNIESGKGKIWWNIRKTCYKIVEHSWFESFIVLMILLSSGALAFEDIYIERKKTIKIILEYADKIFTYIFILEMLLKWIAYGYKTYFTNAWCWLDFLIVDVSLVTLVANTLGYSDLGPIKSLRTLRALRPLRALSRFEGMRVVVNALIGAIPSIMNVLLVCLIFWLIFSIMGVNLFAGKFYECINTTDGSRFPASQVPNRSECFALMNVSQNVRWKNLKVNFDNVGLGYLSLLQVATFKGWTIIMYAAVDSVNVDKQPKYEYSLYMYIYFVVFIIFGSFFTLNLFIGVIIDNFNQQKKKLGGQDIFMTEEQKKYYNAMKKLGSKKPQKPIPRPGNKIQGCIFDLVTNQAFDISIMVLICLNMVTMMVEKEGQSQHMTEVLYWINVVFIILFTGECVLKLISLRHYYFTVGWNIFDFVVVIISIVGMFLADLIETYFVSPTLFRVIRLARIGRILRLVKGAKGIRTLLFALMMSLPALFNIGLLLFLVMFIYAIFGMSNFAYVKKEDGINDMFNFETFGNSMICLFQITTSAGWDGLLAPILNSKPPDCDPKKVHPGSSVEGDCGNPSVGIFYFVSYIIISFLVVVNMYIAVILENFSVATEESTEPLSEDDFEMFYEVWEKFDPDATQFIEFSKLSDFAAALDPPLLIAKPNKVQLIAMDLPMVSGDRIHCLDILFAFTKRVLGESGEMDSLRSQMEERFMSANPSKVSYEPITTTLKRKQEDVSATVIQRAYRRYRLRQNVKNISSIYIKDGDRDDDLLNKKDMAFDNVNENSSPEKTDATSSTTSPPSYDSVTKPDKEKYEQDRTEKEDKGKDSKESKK
T1 sequence (Q07699 19-218 partner): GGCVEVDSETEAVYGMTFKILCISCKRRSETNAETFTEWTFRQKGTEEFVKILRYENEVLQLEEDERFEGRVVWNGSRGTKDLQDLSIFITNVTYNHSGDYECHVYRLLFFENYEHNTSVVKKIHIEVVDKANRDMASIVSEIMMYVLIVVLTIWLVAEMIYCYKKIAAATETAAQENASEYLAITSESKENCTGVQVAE

`Cc1cccc(C)c1OCC(C)NC(=O)[C@H](N)C(C)C` (stereo partly drawn) [Compound 12, (2R)-2-amino-N-(1-(2,6-dimethylphenoxy)propan-2-yl)-3-methylbutanamide]: the “hNav1.7: Reduction in current at 20 mV (normalized data) Delta Ratio” value is on record as −0.19, the “hNav1.7: Voltage dependence of activation (mV) VDEP” value is on record as −7.30 mV, the “hNav1.7: Voltage dependence of fast inactivation (mV) VDEP” value was −4.30 mV and the “hNav1.7: Shift in voltage dependence of inactivation (mV) Delta Vhalf” value (“hNav1.7: Shift … (mV) Delta Vhalf” below) is listed as −25.70 mV.
On the same counts, the results for `CN[C@H](CC(C)C)C(=O)NCCOc1cc(C(F)(F)F)cc(C(F)(F)F)c1` [Compound 13, (R)-N-(2-(3,5-bis(trifluoromethyl)phenoxy)ethyl)-4-methyl-2-(methylamino)pentanamide] are −0.17, −5.90 mV, −4.00 mV and −23.80 mV.
As for `O=C(NCCOc1cc(C(F)(F)F)cc(C(F)(F)F)c1)C1CCCN1` (stereo not drawn) [Compound 14, N-(2-(3,5-bis(trifluoromethyl)phenoxy)ethyl) pyrrolidine-2-carboxamide], the “hNav1.7: Reduction in current at 20 mV (normalized data) Delta Ratio” value is reported as −0.17, the “hNav1.7: Voltage dependence of activation (mV) VDEP” value is −4.00 mV, the “hNav1.7: Voltage dependence of fast inactivation (mV) VDEP” value was −1.10 mV and the “hNav1.7: Shift … (mV) Delta Vhalf” value is listed as −25.30 mV.
The corresponding values for `Cc1cccc(C)c1OCC(C)NC(=O)[C@@H]1CCCN1` (stereo partly drawn) [Compound 15, (2S)-N-(1-(2,6-dimethylphenoxy)propan-2-yl)pyrrolidine-2-carboxamide] are −0.16, −6.00 mV, −4.90 mV and −20.60 mV.
Take `Cc1cccc(C)c1OCC(C)NC(=O)CN` (stereo not drawn) [Compound 17, 2-amino-N-(1-(2,6-dimethylphenoxy)propan-2-yl)acetamide]: the “hNav1.7: Reduction in current at 20 mV (normalized data) Delta Ratio” value was −0.10, the “hNav1.7: Voltage dependence of activation (mV) VDEP” value is listed as −5.80 mV, the “hNav1.7: Voltage dependence of fast inactivation (mV) VDEP” value is recorded as −5.90 mV and the “hNav1.7: Shift … (mV) Delta Vhalf” value was −12.40 mV.
The corresponding values for `CC(C)C[C@H](N)CC(=O)NCCOc1cc(F)cc(C(F)(F)F)c1` [Compound 18, (S)-3-amino-N-(2-(3-fluoro-5-(trifluoromethyl)phenoxy)ethyl)-5-methylhexanamide] are −0.09, −2.60 mV, −3.90 mV and −11.90 mV.
Take `CC[C@@H](C)[C@@H](N)C(=O)NCCOc1cc(F)cc(C(F)(F)F)c1` [Compound 19, (2R,3R)-2-amino-N-(2-(3-fluoro-5-(trifluoromethyl)phenoxy)ethyl)-3-methylpentanamide]: the “hNav1.7: Reduction in current at 20 mV (normalized data) Delta Ratio” value was −0.08, the “hNav1.7: Voltage dependence of activation (mV) VDEP” value was −8.00 mV, the “hNav1.7: Voltage dependence of fast inactivation (mV) VDEP” value was −3.50 mV and the “hNav1.7: Shift … (mV) Delta Vhalf” value was −10.00 mV.
For the compound `O=C(NCCOc1cc(F)cc(C(F)(F)F)c1)[C@H]1CCCN1` [Compound 20, (R)-N-(2-(3-fluoro-5-(trifluoromethyl)phenoxy)ethyl) pyrrolidine-2-carboxamide], the “hNav1.7: Reduction in current at 20 mV (normalized data) Delta Ratio” value was −0.01, the “hNav1.7: Voltage dependence of activation (mV) VDEP” value is on record as −6.80 mV, the “hNav1.7: Voltage dependence of fast inactivation (mV) VDEP” value is listed as −4.40 mV and the “hNav1.7: Shift … (mV) Delta Vhalf” value is −7.20 mV.
With `NC1(C(=O)NCCOc2cc(C(F)(F)F)cc(C(F)(F)F)c2)CC1` [Compound 21, 1-amino-N-(2-(3,5-bis(trifluoromethyl)phenoxy)ethyl) cyclopropane-1-carboxamide], the “hNav1.7: Reduction in current at 20 mV (normalized data) Delta Ratio” value was 0.00, the “hNav1.7: Voltage dependence of activation (mV) VDEP” value is −5.20 mV, the “hNav1.7: Voltage dependence of fast inactivation (mV) VDEP” value is −10.40 mV and the “hNav1.7: Shift … (mV) Delta Vhalf” value is −4.20 mV.
The corresponding values for `O=C(NCCOc1cc(F)cc(C(F)(F)F)c1)[C@@H]1CCCN1` [Compound 22, (S)-N-(2-(3-fluoro-5-(trifluoromethyl)phenoxy)ethyl) pyrrolidine-2-carboxamide] are 0.06, −6.50 mV, −1.80 mV and −7.00 mV.
On the same counts, the results for `Cc1cccc(C)c1OCC(C)NC(=O)C(C)(C)CC(=O)N1CCNCC1` (stereo not drawn) [Compound 33, N-(1-(2,6-dimethylphenoxy)propan-2-yl)-2,2-dimethyl-4-oxo-4-(piperazin-1-yl)butanamide] are −0.07, −8.70 mV, −6.00 mV and −5.30 mV.
For the compound `Cc1cccc(C)c1OCC(C)NC(=O)CC(=O)NC1CCNCC1` (stereo not drawn) [Compound 34, N1-(1-(2,6-dimethylphenoxy)propan-2-yl)-N3-(piperidin-4-yl)malonamide], the “hNav1.7: Reduction in current at 20 mV (normalized data) Delta Ratio” value is listed as −0.03, the “hNav1.7: Voltage dependence of activation (mV) VDEP” value is reported as −6.30 mV, the “hNav1.7: Voltage dependence of fast inactivation (mV) VDEP” value is given as −5.10 mV and the “hNav1.7: Shift … (mV) Delta Vhalf” value is listed as −2.30 mV.
On the same counts, the results for `Cc1cccc(C)c1OCC(C)NC(=O)CN1CCNCC1=O` (stereo not drawn) [Compound 35, N-(1-(2,6-dimethylphenoxy)propan-2-yl)-2-(2-oxopiperazin-1-yl)acetamide] are −0.06, −7.40 mV, −4.40 mV and −3.00 mV.
The corresponding values for `Cc1cccc(C)c1OCC(C)NC(=O)CCN1CCNCC1=O` (stereo not drawn) [Compound 36, N-(1-(2,6-dimethylphenoxy)propan-2-yl)-3-(2-oxopiperazin-1-yl)propanamide] are −0.04, −12.90 mV, −5.00 mV and −2.90 mV.
The corresponding values for `Cc1cccc(C)c1OCC(C)NC(=O)C(C)(C)N1CCNCC1=O` (stereo not drawn) [Compound 37, N-(1-(2,6-dimethylphenoxy)propan-2-yl)-2-methyl-2-(2-oxopiperazin-1-yl)propanamide] are −0.09, −9.00 mV, −6.30 mV and −5.00 mV.

Values taken from patent US20170107203A1, “HETEROCYCLIC INHIBITORS OF THE SODIUM CHANNEL” (EPIRUS BIOPHARMACEUTICALS, INC., priority 2014, published 2017).
